Reference: US20250281929A1, “MICROFLUIDIC DEVICE AND USES THEREOF” (CASE WESTERN RESERVE UNIVERSITY, priority 2020, published 2025)

Columns and labels:
RBC = test: MIRCA functional assay of RBC deformability, quantitative microcapillary occlusion (Occlusion Index); format: cell-based, human; conditions: people with variant SCD (HbSC) and SCA (HbSS)
Text: Abnormal RBC deformability contributes to the underlying pathophysiology of SCD, and we tested this in variant SCD and sickle cell trait (SCT). We have developed MIRCA, a novel functional assay of RBC deformability, assessed by quantitative microcapillary occlusion (‘Occlusion Index, OI’, FIG. 18). This in vitro test recapitulates key geometric features of the capillary bed: >80,000 narrow openings and side anastomoses ‘on-a-chip’, under normoxia or hypoxia (FIG. 18).

healthy RBCs = test: microfluidic assay of RBC mediated microvascular occlusion (micropillar arrays with integrated electrical impedance measurement); format: cell-based, human; conditions: RBCs stiffened with 0.08% w/v glutaraldehyde 10 min, 20% hematocrit, mean±SD, N=4; for RBC Electrical Impedance Index (REI): impedance at 10 kHz
Protocol: In order to validate the microfluidic device functionality of assessing RBC mediated microvascular occlusion, healthy RBCs were isolated and treated with 0.08% w/v glutaraldehyde (Sigma Aldrich) for 10 min at room temperature. The glutaraldehyde-stiffened RBCs were then washed with PBS, mixed with untreated healthy RBCs from the same donor at either 1% or 2% v/v ratio, and re-suspended in PBS at 20% hematocrit for testing. Healthy RBCs from the same healthy donor were included in the study design as control.
Microchannels were initially washed with absolute ethanol (100%) and PBS, which was followed by incubation with 2% bovine serum albumin (BSA) overnight to prevent non-specific binding of RBCs to the channel walls. A Flow-EZ™ microfluidic flow control system (Fluigent, Lowell, MA) was used to regulate the flow (FIG. 12). An impedance analyzer (Agilent 4294A, Santa Clara, CA) coupled with a custom printed-circuit board was used to perform electrical impedance measurements. Briefly, impedance magnitude across each of the 3-μm to 10-μm micropillar arrays was recorded over the frequency range of 40 Hz-1 MHz before introducing blood into the microchannel and after completing the washing step. […]
Prior to the experiment, PBS was perfused through the microchannel at 100 mBar for 15 min to allow for any volumetric changes of the microchannel. Thereafter, the baseline impedance reading was obtained for each micropillar array without stopping the PBS flow. […] A second impedance reading was then obtained for each micropillar array upon the conclusion of the post-perfusion wash step. […] For select experiments, the electrical impedance of the 3-μm micropillar array was continuously monitored over the entire duration of the experiment.
To determine the association between the electrical impedance change and microcapillary occlusion in the microchannel, an Olympus IX83 inverted motorized microscope with Olympus CellSense live-cell imaging and analysis software were used to obtain high-resolution microscopic images. The images were further processed by Adobe Photoshop software (San Jose, CA), in which the obstructed microcapillaries were manually counted. […]
[formula] [formula] • where, • n=Total number of capillary networks within the area of interest • i=The i^th capillary network within the area of interest • Oi; =The number of microcapillary occlusion in the i^th capillary network • Ni=Total number of microcapillaries in the i^th capillary network • Ii1=The first electrical impedance reading of the i^th capillary network • Ii2=The second electrical impedance reading of the i^th capillary network […]

[1] = sample 98% healthy RBCs and 2% stiff RBCs
[2] = sample 99% healthy RBCs and 1% stiff RBCs

| SMILES | association of RBC Occlusion Index (OI) with drug use (RBC) | RBC Electrical Impedance Index (REI) (healthy RBCs; [1]) | RBC Occlusion Index (ROI) (healthy RBCs; [1]) | RBC Electrical Impedance Index (REI) (healthy RBCs; [2]) | RBC Occlusion Index (ROI) (healthy RBCs; [2]) |
| --- | --- | --- | --- | --- | --- |
| NC(=O)NO [hydroxyurea] | inversely associated |  |  |  |  |
| O=CCCCC=O [glutaraldehyde] |  | 20.99% | 36.16% | 9.40% | 17.15% |
